Publication PMC6508865, “Dynamics of thymol dietary supplementation in quail (Coturnix japonica): Linking bioavailability, effects on egg yolk total fatty acids and performance traits” (PLoS ONE, 2019)

Test system: female Japanese quail (Coturnix japonica)
Assay: Female performance traits (body weight, feed intake, egg laying, egg physical characteristics)
Assay type: in vivo
Excerpt: A total of 50 eighty-five days-old female quail of homogeneous body weights (251 ± 1 g; Mean ± SE) and in their egg-laying peak were selected from an initial group of 96 female individuals. All birds continued receiving a basal diet between 85 and 100 days of age and all variables (see below for details) were registered along this period (Pre-supplementation period, Fig 1). From 100 to 128 days of age (S period, Fig 1), females were randomly assigned to either a chronic dietary supplementation with one of 3 THY doses (THY2, THY4 and THY6; 10 females each) or to one of 2 control groups (basal diet, BASAL, and basal diet with vehicle solution, VEHICLE; 10 females each). Once finished the S period, half of the quail were slaughtered for histological analysis (n = 25; Slaughter 1, Fig 1) and the other half were subjected to a pS period of 21 days, during which all females received the BASAL diet (pS, Fig 1). After this period, the remaining 25 animals were also slaughtered for histological analysis (Slaughter 2, Fig 1). In this way, we assessed whether THY induced changes in variables indicative of tissue damage and if so, whether the potential damages could reverse after 3 weeks of supplement withdrawal.
To assess changes in egg yolk total FA composition, egg physical characteristics, laying rate, body weight, feed intake and general welfare, during the S and pS periods, five sampling points were defined (Sample points, Fig 1): one initial sample point (at 0 days of S); three sample points during the S period (at 7, 14 and 28 days of S); and one sample point at the end of the pS period (21 days of pS). It should be noted that for determinations of THY concentration, eggs and quail droppings were collected offset from the other variables measured by 2 days, thus were collected on days 2, 9, 16, and 26 days of S, and 17 days of pS, respectively.
Female performance was evaluated through the measurement of body weight, feed intake, egg laying rate, egg physical characteristics and a general welfare quality assessment. Body weight was measured once a week throughout the experimental period. Daily feed intake (DFI) was estimated as the difference between the amount of feed supplied to each animal (60 g) and the rest that remained in the feeders the next day (g of feed/day/quail). Egg laying was registered daily and the weekly laying rate was calculated as: (number of eggs / 7 days) x 100. Egg weight, quality characteristics (such as intact, membranous, soft shell and broken shell), morphometric characteristics (egg shape index = (egg width / egg length) x 100) and percentage of constituents (egg yolk, albumen and shell) were registered at each sampling point.

[1] = overall mean over BASAL, VEHICLE and 2, 4, 6.25 g thymol/kg feed diets and five sampling times, no effect of diet

`Cc1ccc(C(C)C)c(O)c1` [THY, 2 isopropyl-5-methylphenol] was tested. Which “effect on physical egg traits” value (2, 4, 6.25 g of THY/kg feed) did it give?
The value was “did not affect”.

What about the “effect of the diet supplied on performance variables (body weight, feed intake, egg laying, morphometric characteristics and constituents of eggs)” value (2, 4, 6.25 g of THY/kg feed vs controls, 28 days S and 21 days pS) of the same compound?
Its value is “no effects”.

What about the Egg shape index ((egg width / egg length) x 100, overall mean over BASAL, VEHICLE and 2, 4, 6.25 g thymol/kg feed diets and five sampling times, no effect of diet) of the same compound?
The Egg shape index was 79.5%.

What about the daily feed intake (no differences between treatments, all diets) of the same compound?
Its daily feed intake is 30.3 ± 1 g/day/animal.

What about the Egg albumen [1] of the same compound?
The Egg albumen was 48.6%.

And the Egg shell [1]?
Its Egg shell is 14.4%.

What about the Egg weight [1] of the same compound?
Its Egg weight is 11.3 g.

What about the Egg yolk [1] of the same compound?
Its Egg yolk is 37.0%.

What about the “Weekly Body Weight per individual” value [1] of the same compound?
The value was 254 g.

What about the “Weekly Feed Intake per individual” value [1] of the same compound?
Its value is 212 g.

And the “Cumulative number of eggs” value (overall mean over BASAL, VEHICLE and 2, 4, 6.25 g thymol/kg feed diets, no effect of diet)?
Its value is 42.
